Test results: US10472353B2, “Salt and crystal forms of PLK-4 inhibitor” (University Health Network, priority 2013, dated 2019)
Counter-ions that a name gives are not always drawn. Like-named read-outs stand apart in the source and are kept apart here.

Assays:
[1] = Gravimetric moisture sorption (dynamic vapour sorption, 25° C.); type: physicochemical; conditions: for Gravimetric Moisture Sorption: 25° C.
Protocol: Gravimetric moisture sorption experiments were carried out on a Hiden dynamic vapour sorption analyzer by first holding the sample at 40% RH and 25° C. until an equilibrium weight was reached or for a maximum of four hours. The sample was then subjected to an isothermal (25° C.) adsorption scan from 40 to 90% RH in steps of 10%. The sample was allowed to equilibrate to an asymptotic weight at each point for a maximum of four hours. Following adsorption, a desorption scan from […] RH (at 25° C.) was run in steps of −10% again allowing a maximum of four hours for equilibration to an asymptotic weight. An adsorption scan was then performed from 0% RH to 40% RH in steps of +10% RH.

[2] = Solubility in deionized water; type: physicochemical
[3] = Pharmacokinetics after single oral dose, powder in capsule, plasma levels of compound (I) by LC/MS; type: in vivo, female Sprague-Dawley rats; conditions: Sprague-Dawley rats
Protocol: A single oral dose in solution and as powder in capsule of the HCl salt of (I), fumarate form D and maleate form A were administered to female Sprague-Dawley rats at 5 mg/kg. Blood samples were collected in the presence of lithium heparin, and were centrifuged to generate plasma. The plasma was then analyzed for compound (I) plasma levels by LC/MS.
All animals involved in the dosing schedule were weighed and assigned numbers. All capsules (Size 9 porcine hard gelatin capsules, Torpac) corresponding with each animal to be dosed were carefully numbered with a fine tip Sharpie. A small plastic weighing dish was placed on the scale, with one capsule lid placed on the dish and the base of the capsule loader with the other part of the capsule was loaded in the reservoir. The balance was tared. A funnel was placed on top of the capsule loading apparatus and the total mass was carefully noted. A piece of 4″×4″ wax paper was folded in half creating a crease down the median. A small amount of finely ground compound (Ground the compound if required using mortar and pestle) was deposited in the crease of the wax paper and refolded. The folded wax paper was gently angled over the capsule loader funnel apparatus. A fine scapula was used to tease an amount of compound powder out of the crease onto the funnel allowing it to trickle into the loading bay and ultimately the capsule. The difference in mass from the total mass was noted. The capsule loading funnel was removed and the balance door closed to ascertain the absolute weight of compound inside the capsule. The funnel was returned to the capsule loading apparatus and loading continued until the desired amount of drug was inside the capsule. Note: When adding minute quantities to the capsule, simply brushed fine powered drug that settled on the funnel into the loading column. The funnel was removed and the weight was recorded. Calculated the amount of actual drug by multiplying weighed material by the bioequivalence ratio. The amount of actual drug was recorded. The capsule lid on the weighing dish was used to close the capsule tightly until it clicked into place.
All animals (n=3/group) were dosed orally in a volume of 5 mL/kg. Following dosing, each rat was bled at each of the designated time points. For control animals, blood was collected by the same procedure. Blood was collected from the lateral saphenous vein. Blood aliquots (˜50 μL) were collected in tubes coated with lithium heparin, mixed gently, then kept on ice and centrifuged at 2,500×g for 15 minutes at RT, within 1 hour of collection. The plasma layer was collected, kept on ice and finally maintained frozen at −80° C. until further processing.
Bioanalytical quantitation using HPLC/tandem quadruple mass spectrometry (HPLC-MS) was performed. Plasma concentrations and […] were calculated and reported.
A 5 mg/mL standard solution in DMSO was diluted 100 fold and subsequently serial diluted in 50% DMSO. Aliquots (2 μL) of the serial dilutions were mixed with 18 μL of control plasma (20 μL total) for use as a standard curve. Plasma samples (20 μL) and standard samples were then diluted 5× with ice cold acetonitrile containing 100 ng/mL verapamil as internal standard (80% (v/v) acetonitrile). Acetonitrile precipitated samples and standards were filtered through 0.22 μm membranes in a 96-well format. Filtrates were then diluted with water to 30% acetonitrile.
LC: 10 μL of each sample and standard were injected onto a Waters Acquity CSH 1.7 μm 2.1×100 mm column at 0.6 mL/min by an Acquity UPLC. The C18 column was equilibrated at 10% acetonitrile. Compounds were eluted with a gradient to 99% acetonitrile. All mobile phases contained 0.1% (v/v) formic acid.
MS: Column eluent was analyzed by electrospray ionization into a tandem quadrupole mass spec system (Waters Xevo TQ). Eluent composition was analyzed for three ion-pairs specific for the internal standard and three ion-pairs specific for the analyte. […]

[4] = Differential scanning calorimetry, phase transition of the polymorphs; type: physicochemical
Protocol: DSC analyses were carried out on a Mettler 822e differential scanning calorimeter or a TA instruments Q2000. Samples were weighed in an aluminum pan, covered with a pierced lid, and then crimped. Analysis conditions were 30-120, 30-200, 30-300° C. and 40-300° C. ramped at 10° C./min.
Form D can be directly prepared as follows: A 250-mL three neck RBF equipped with a stir bar was charged with compound (I) (6.01 g, 11 mmol) and fumaric acid (1.41 g, 12 mmol). Acetone (50 mL) was added and the slurry was heated to 50° C. until the solution became clear. Precipitation was observed after 10 min, and stirring was continued for an additional 30 min. MTBE (25 mL) was added and the solution was cooled to rt and stirred overnight. The solids were filtered and dried under vacuum at 60° C. for 2 d to give the title compound (I) as a white solid (6.65 g, 91%).

COc1ccc2c(c1)[C@]1(C[C@H]1c1ccc3c(/C=C/c4ccc(CN5C[C@@H](C)O[C@@H](C)C5)cc4)n[nH]c3c1)C(=O)N2 [1:1 Compound (I) fumarate]
Hygroscopicity (in words) [1]: non-hygroscopic

COc1ccc2c(c1)[C@]1(C[C@H]1c1ccc3c(/C=C/c4ccc(CN5C[C@@H](C)O[C@@H](C)C5)cc4)n[nH]c3c1)C(=O)N2 [1:1 compound (I) maleate]
Hygroscopicity (in words) [1]: non-hygroscopic

COc1ccc2c(c1)[C@]1(C[C@H]1c1ccc3c(/C=C/c4ccc(CN5C[C@@H](C)O[C@@H](C)C5)cc4)n[nH]c3c1)C(=O)N2 [Fumarate (form D)]
Solubility in DI water ([2]; listed as Fumarate D): 0.17 mg/mL
AUC0-tlast ([3]; 5.0 mg/kg): 2780 ng·h/mL
Cmax ([3]; 5.0 mg/kg): 270 ng/mL
Stability among the four fumarate polymorphs (phase transition by DSC) [4]: highest stability
Gravimetric Moisture Sorption ([1]; 60% RH, listed as Fumarate D): 2.1 wt % 60% RH
Gravimetric Moisture Sorption ([1]; 90% RH, listed as Fumarate D): 4.0 wt % 90% RH

COc1ccc2c(c1)[C@]1(C[C@H]1c1ccc3c(/C=C/c4ccc(CN5C[C@@H](C)O[C@@H](C)C5)cc4)n[nH]c3c1)C(=O)N2 [Fumarate B]
Gravimetric Moisture Sorption ([1]; 60% RH): 3.7 wt % 60% RH
Hydrate formed on moisture sorption ([1]; 90% RH): tetrahydrate
Gravimetric Moisture Sorption ([1]; 90% RH): 10.5 wt % 90% RH
Hygroscopicity (in words) ([1]; listed as Form B): hygroscopic

COc1ccc2c(c1)[C@]1(C[C@H]1c1ccc3c(/C=C/c4ccc(CN5C[C@@H](C)O[C@@H](C)C5)cc4)n[nH]c3c1)C(=O)N2 [Fumarate C]
Solubility in DI water [2]: 0.625 mg/mL

COc1ccc2c(c1)[C@]1(C[C@H]1c1ccc3c(/C=C/c4ccc(CN5C[C@@H](C)O[C@@H](C)C5)cc4)n[nH]c3c1)C(=O)N2 [HCl]
Solubility in DI water [2]: ≥100 mg/mL
AUC(0-t) ([3]; female, Sprague-Dawley, rat, plasma, po, 5 mg/kg, read-out: AUC0-tlast): 2400 ng·h/mL
Cmax ([3]; female, Sprague-Dawley, rat, plasma, po, 5 mg/kg, read-out: Cmax): 250 ng/mL

COc1ccc2c(c1)[C@]1(C[C@H]1c1ccc3c(/C=C/c4ccc(CN5C[C@@H](C)O[C@@H](C)C5)cc4)n[nH]c3c1)C(=O)N2 [Maleate (form A)]
AUC0-tlast ([3]; 5.0 mg/kg): 1500 ng·h/mL
Cmax ([3]; 5.0 mg/kg): 200 ng/mL
Gravimetric Moisture Sorption ([1]; 60% RH, listed as Maleate A): 1.3 wt %, 60% RH
Gravimetric Moisture Sorption ([1]; 90% RH, listed as Maleate A): 2.2 wt %, 90% RH

COc1ccc2c(c1)[C@]1(C[C@H]1c1ccc3c(/C=C/c4ccc(CN5C[C@@H](C)O[C@@H](C)C5)cc4)n[nH]c3c1)C(=O)N2 [Phosphate]
Solubility in DI water [2]: ≥100 mg/mL
Gravimetric Moisture Sorption ([1]; 60% RH): 6.1 wt % 60% RH
Gravimetric Moisture Sorption ([1]; 90% RH): 10.9 wt % 90% RH
